Patent US6503881B2 (priority 1996, dated 2003)
Like-named read-outs stand apart in the source and are kept apart here.

Tested on: bacterial isolates
Conditions: for PIC: with Gentamicin

## W R I W K P K W R L P K W [MBI 11D18CN]
A. baumannii ABI001
  Gentamicin MIC + Peptide: 16 µg/mL
  Peptide MIC + Gentamicin: 0.5 µg/mL
  Peptide MIC + Tobramycin: 4 µg/mL
  Peptide MIC Alone: 64 µg/mL
  Tobramycin MIC + Peptide: 4 µg/mL
  PIC: 0.27
A. baumannii ABI002
  Gentamicin MIC + Peptide: 8 µg/mL
  Peptide MIC + Gentamicin: 2 µg/mL
  Peptide MIC + Tobramycin: 0.5 µg/mL
  Peptide MIC Alone: 16 µg/mL
  Tobramycin MIC + Peptide: 4 µg/mL
  PIC: 0.56
A. calcoaceticus 3
  Peptide MIC + Piperacillin: 8 µg/mL
  Peptide MIC Alone: 32 µg/mL
  Piperacillin MIC + Peptide: 8 µg/mL
E. cloacae 9
  Peptide MIC + Piperacillin: 16 µg/mL
  Peptide MIC Alone: 64 µg/mL
  Piperacillin MIC + Peptide: 16 µg/mL
E. cloacae 10
  Peptide MIC + Piperacillin: 8 µg/mL
  Peptide MIC Alone: 32 µg/mL
  Piperacillin MIC + Peptide: 64 µg/mL
E. coli ECO006
  Gentamicin MIC + Peptide: 16 µg/mL
  Peptide MIC + Gentamicin: 0.125 µg/mL
  PIC: 0.27
E. coli SBECO1
  Mupirocin MIC + Peptide: 30 µg/mL
  Peptide MIC + Mupirocin: 0.125 µg/mL
E. coli SBECO1 (Mupirocin section)
  Peptide MIC Alone: 2 µg/mL
E. coli SBECO2
  Mupirocin MIC + Peptide: 30 µg/mL
  Peptide MIC + Mupirocin: 0.5 µg/mL
E. coli SBECO2 (Mupirocin section)
  Peptide MIC Alone: 16 µg/mL
E. faecalis EFS001
  Peptide MIC + Vancomycin: 2 µg/mL
  Peptide MIC Alone: 8 µg/mL
  Vancomycin MIC + Peptide: 0.125 µg/mL
E. faecalis EFS004
  Peptide MIC + Vancomycin: 2 µg/mL
  Peptide MIC Alone: 8 µg/mL
  Vancomycin MIC + Peptide: 0.5 µg/mL
E. faecalis EFS008
  Gentamicin MIC + Peptide: 8 µg/mL
  Peptide MIC + Gentamicin: 0.125 µg/mL
  PIC: 0.19
E. faecalis EFS011
  Peptide MIC + Vancomycin: 0.125 µg/mL
  Peptide MIC Alone: 64 µg/mL
  Vancomycin MIC + Peptide: 32 µg/mL
E. faecalis EFS012
  Peptide MIC + Vancomycin: 2 µg/mL
  Peptide MIC Alone: 16 µg/mL
  Vancomycin MIC + Peptide: 64 µg/mL
E. faecalis EFS014
  Peptide MIC + Vancomycin: 0.5 µg/mL
  Peptide MIC Alone: 4 µg/mL
  Vancomycin MIC + Peptide: 4 µg/mL
E. faecium EFM004
  Gentamicin MIC + Peptide: 8 µg/mL
  Peptide MIC + Gentamicin: 0.125 µg/mL
  Peptide MIC + Vancomycin: 2 µg/mL
  Peptide MIC Alone: 8 µg/mL
  Vancomycin MIC + Peptide: 64 µg/mL
  PIC: 0.05
E. faecium EFM009
  Peptide MIC + Vancomycin: 0.125 µg/mL
  Peptide MIC Alone: 8 µg/mL
  Vancomycin MIC + Peptide: 32 µg/mL
E. faecium EFM010
  Peptide MIC + Vancomycin: 0.25 µg/mL
  Peptide MIC Alone: 8 µg/mL
  Vancomycin MIC + Peptide: 64 µg/mL
E. faecium EFM011
  Peptide MIC + Vancomycin: 2 µg/mL
  Peptide MIC Alone: 8 µg/mL
  Vancomycin MIC + Peptide: 64 µg/mL
H. influenzae 3
  Peptide MIC + Piperacillin: 8 µg/mL
  Peptide MIC Alone: >128 µg/mL
  Piperacillin MIC + Peptide: 0.25 µg/mL
H. influenzae SB1
  Peptide MIC + Piperacillin: 4 µg/mL
  Peptide MIC Alone: >128 µg/mL
  Piperacillin MIC + Peptide: 0.25 µg/mL
K. pneumonia KP020
  Gentamicin MIC + Peptide: 32 µg/mL
  Peptide MIC + Gentamicin: 0.125 µg/mL
  PIC: 0.50
K. pneumonia KP020 (Gentamicin section)
  Peptide MIC Alone: 32 µg/mL
P. aeruginosa 23
  Peptide MIC + Piperacillin: 8 µg/mL
  Peptide MIC Alone: 64 µg/mL
  Piperacillin MIC + Peptide: 32 µg/mL
P. aeruginosa 41
  Peptide MIC + Piperacillin: 16 µg/mL
  Peptide MIC Alone: >128 µg/mL
  Piperacillin MIC + Peptide: 32 µg/mL
P. aeruginosa PA4
  Mupirocin MIC + Peptide: 30 µg/mL
  Peptide MIC + Mupirocin: 64 µg/mL
P. aeruginosa PA4 (Mupirocin section)
  Peptide MIC Alone: 128 µg/mL
P. aeruginosa PA022
  Gentamicin MIC + Peptide: 8 µg/mL
  Peptide MIC + Gentamicin: 0.125 µg/mL
  PIC: 0.52
P. aeruginosa PA022 (Gentamicin section)
  Peptide MIC Alone: 8 µg/mL
P. aeruginosa PA24
  Ciprofloxacin MIC + Peptide: 4 µg/mL
  Peptide MI + Ciprofloxacin: 16 µg/mL
P. aeruginosa PA24 (Ciprofloxacin section)
  Peptide MI Alone: >128 µg/mL
P. aeruginosa PA041
  Gentamicin MIC + Peptide: 0.125 µg/mL
  Peptide MIC + Gentamicin: 8 µg/mL
  PIC: 0.14
P. aeruginosa PA041 (Gentamicin section)
  Peptide MIC Alone: 64 µg/mL
P. aeruginosa PA77
  Ciprofloxacin MIC + Peptide: 0.5 µg/mL
  Peptide MI + Ciprofloxacin: 32 µg/mL
P. aeruginosa PA77 (Ciprofloxacin section)
  Peptide MI Alone: 128 µg/mL
P. aeruginosa SBPA1
  Mupirocin MIC + Peptide: 100 µg/mL
  Peptide MIC + Mupirocin: 32 µg/mL
P. aeruginosa SBPA1 (Mupirocin section)
  Peptide MIC Alone: 128 µg/mL
Piperacillin + peptide, A. calcoaceticus 3
  FIC: 0.38
Piperacillin + peptide, E. cloacae 9
  FIC: 0.31
Piperacillin + peptide, E. cloacae 10
  FIC: 0.50
Piperacillin + peptide, H. influenzae 3
  FIC: 0.53
Piperacillin + peptide, H. influenzae SB1
  FIC: 0.52
Piperacillin + peptide, P. aeruginosa 23
  FIC: 0.38
Piperacillin + peptide, P. aeruginosa 41
  FIC: 0.56
Piperacillin + peptide, S. aureus 19 MRSA
  FIC: 0.38
Piperacillin + peptide, S. aureus SB2MRSA
  FIC: 0.50
Piperacillin + peptide, S. maltophilia 2
  FIC: 0.50
Piperacillin + peptide, S. marcescens 1
  FIC: 0.14
S. aureus 19 MRSA
  Peptide MIC + Piperacillin: 1 µg/mL
  Peptide MIC Alone: 4 µg/mL
  Piperacillin MIC + Peptide: 16 µg/mL
S. aureus SA014 MRSA
  Gentamicin MIC + Peptide: 2 µg/mL
  Peptide MIC + Gentamicin: 0.125 µg/mL
  PIC: 0.13
S. aureus SA014 MRSA (Gentamicin section)
  Peptide MIC Alone: 2 µg/mL
S. aureus SA018 MRSA
  Peptide MIC + Tobramycin: 16 µg/mL
  Peptide MIC Alone: 32 µg/mL
  Tobramycin MIC + Peptide: 4 µg/mL
S. aureus SA025 MRSA
  Gentamicin MIC + Peptide: 1 µg/mL
  Peptide MIC + Gentamicin: 0.125 µg/mL
  PIC: 0.14
S. aureus SA025 MRSA (Gentamicin section)
  Peptide MIC Alone: 1 µg/mL
S. aureus SB2MRSA
  Peptide MIC + Piperacillin: 0.5 µg/mL
  Peptide MIC Alone: 2 µg/mL
  Piperacillin MIC + Peptide: 32 µg/mL
S. epidermidis SE071
  Gentamicin MIC + Peptide: 4 µg/mL
  Peptide MIC + Gentamicin: 0.125 µg/mL
  PIC: 0.27
S. epidermidis SE071 (Gentamicin section)
  Peptide MIC Alone: 8 µg/mL
S. epidermidis SE074
  Gentamicin MIC + Peptide: 4 µg/mL
  Peptide MIC + Gentamicin: 0.125 µg/mL
  PIC: 0.09
S. epidermidis SE074 (Gentamicin section)
  Peptide MIC Alone: 4 µg/mL
S. haemolyticus SHA001
  Peptide MIC + Tobramycin: 1 µg/mL
  Peptide MIC Alone: 2 µg/mL
  Tobramycin MIC + Peptide: 0.125 µg/mL
S. maltophilia 2
  Peptide MIC + Piperacillin: 8 µg/mL
  Peptide MIC Alone: 32 µg/mL
  Piperacillin MIC + Peptide: 16 µg/mL
S. maltophilia SMA016
  Gentamicin MIC + Peptide: 16 µg/mL
  Peptide MIC + Gentamicin: 16 µg/mL
  PIC: 0.38
S. maltophilia SMA016 (Gentamicin section)
  Peptide MIC Alone: 64 µg/mL
S. maltophilia SMA019
  Gentamicin MIC + Peptide: 4 µg/mL
  Peptide MIC + Gentamicin: 0.5 µg/mL
  PIC: 0.19
S. maltophilia SMA019 (Gentamicin section)
  Peptide MIC Alone: 8 µg/mL
S. maltophilia SMA027
  Peptide MIC + Tobramycin: 16 µg/mL
  Peptide MIC Alone: >128 µg/mL
  Tobramycin MIC + Peptide: 4 µg/mL
S. maltophilia SMA029
  Peptide MIC + Tobramycin: 4 µg/mL
  Peptide MIC Alone: 32 µg/mL
  Tobramycin MIC + Peptide: 4 µg/mL
S. marcescens 1
  Peptide MIC + Piperacillin: 4 µg/mL
  Peptide MIC Alone: >128 µg/mL
  Piperacillin MIC + Peptide: 8 µg/mL
S. marcescens SBSM1
  Mupirocin MIC + Peptide: 100 µg/mL
  Peptide MIC + Mupirocin: 16 µg/mL
S. marcescens SBSM1 (Mupirocin section)
  Peptide MIC Alone: >128 µg/mL
S. marcescens SBSM2
  Mupirocin MIC + Peptide: 100 µg/mL
  Peptide MIC + Mupirocin: 64 µg/mL
S. marcescens SBSM2 (Mupirocin section)
  Peptide MIC Alone: >128 µg/mL
Tobramycin + peptide, A. baumannii ABI001
  FIC: 0.31
Tobramycin + peptide, A. baumannii ABI002
  FIC: 0.53
Tobramycin + peptide, S. aureus SA018 MRSA
  FIC: 0.56
Tobramycin + peptide, S. haemolyticus SHA001
  FIC: 0.53
Tobramycin + peptide, S. maltophilia SMA027
  FIC: 0.19
Tobramycin + peptide, S. maltophilia SMA029
  FIC: 0.16
Vancomycin + peptide, E. faecalis EFS001
  FIC: 0.38
Vancomycin + peptide, E. faecalis EFS004
  FIC: 0.50
Vancomycin + peptide, E. faecalis EFS011
  FIC: 0.50
Vancomycin + peptide, E. faecalis EFS012
  FIC: 0.38
Vancomycin + peptide, E. faecalis EFS014
  FIC: 0.16
Vancomycin + peptide, E. faecium EFM004
  FIC: 0.50
Vancomycin + peptide, E. faecium EFM009
  FIC: 0.52
Vancomycin + peptide, E. faecium EFM010
  FIC: 0.28
Vancomycin + peptide, E. faecium EFM011
  FIC: 0.50
With Ciprofloxacin, P. aeruginosa PA24
  FIC: 0.31
With Ciprofloxacin, P. aeruginosa PA77
  FIC: 0.50
With Mupirocin, E. coli SBECO1
  FIC: 0.36
With Mupirocin, E. coli SBECO2
  FIC: 0.06
With Mupirocin, P. aeruginosa PA4
  FIC: 0.53
With Mupirocin, P. aeruginosa SBPA1
  FIC: 0.35
With Mupirocin, S. marcescens SBSM1
  FIC: 0.16
With Mupirocin, S. marcescens SBSM2
  FIC: 0.35
